Test results: patent US20240425479A1, “HALO-SUBSTITUTED AMINO AZA-HETEROARYL COMPOUNDS AS INHIBITORS OF THE HAEMATOPOIETIC PROGENITOR KINASE 1 (HPK1)” (priority 2021, published 2024)

Assays:
[1] = molecular target: T1, Recombinant (1-346) HPK1 (h) (Homo sapiens, UniProt Q92918); assay: HPK1 human STE kinase enzymatic radiometric assay; type: biochemical; conditions: read-out: HPK1 IC50 nM Range
T1 construct: Recombinant (1-346) HPK1 (h) is incubated with 8 mM MOPS pH 7.0
T1 sequence (Q92918 1-346): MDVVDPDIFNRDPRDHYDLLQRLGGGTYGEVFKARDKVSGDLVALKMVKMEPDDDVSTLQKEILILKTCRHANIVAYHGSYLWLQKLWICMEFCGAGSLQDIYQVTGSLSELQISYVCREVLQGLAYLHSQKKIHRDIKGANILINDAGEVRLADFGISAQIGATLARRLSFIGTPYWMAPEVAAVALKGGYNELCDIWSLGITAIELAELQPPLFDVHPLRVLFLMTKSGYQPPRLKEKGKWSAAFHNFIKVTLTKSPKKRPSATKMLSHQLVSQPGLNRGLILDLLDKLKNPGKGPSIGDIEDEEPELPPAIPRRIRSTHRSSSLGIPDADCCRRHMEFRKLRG
Summary of the method: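 Recombinant HPK1 (1-346) incubated 40 min at RT with 0.33 mg/mL myelin basic protein and [gamma-33P]-ATP in 8 mM MOPS pH 7.0, 0.2 mM EDTA, 10 mM Mg acetate; reaction started with Mg/ATP. Stopped with 0.5% phosphoric acid, spotted on P30 filtermat, washed, scintillation counted. Compounds tested as 9-point 3-fold dilutions.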

Lck (h) = Lck (h) (Homo sapiens, UniProt P06239); assay: Lck human STE kinase enzymatic radiometric assay; type: biochemical; conditions: for IC50: read-out: Lck IC50 nM Range
Chain of Lck (h) (P06239 whole entry): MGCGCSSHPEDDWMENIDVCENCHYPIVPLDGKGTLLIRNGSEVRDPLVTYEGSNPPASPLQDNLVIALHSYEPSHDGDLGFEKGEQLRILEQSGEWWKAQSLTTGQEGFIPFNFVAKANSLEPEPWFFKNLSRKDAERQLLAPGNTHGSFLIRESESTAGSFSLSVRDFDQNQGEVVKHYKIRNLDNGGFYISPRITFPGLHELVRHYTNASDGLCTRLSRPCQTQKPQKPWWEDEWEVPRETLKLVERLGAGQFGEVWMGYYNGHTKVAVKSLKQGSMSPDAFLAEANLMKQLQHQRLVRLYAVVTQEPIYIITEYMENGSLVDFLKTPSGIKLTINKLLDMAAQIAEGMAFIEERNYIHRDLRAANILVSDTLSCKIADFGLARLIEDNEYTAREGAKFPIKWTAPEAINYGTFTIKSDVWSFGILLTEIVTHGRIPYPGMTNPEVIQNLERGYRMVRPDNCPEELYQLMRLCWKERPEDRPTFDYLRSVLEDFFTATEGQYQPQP
Protocol: (b) Lck Human STE Kinase Enzymatic Radiometric Assay
Lck (h) is incubated with 50 mM Tris pH 7.5, 0.1 mM EGTA, 0.1 mM Na3VO4, 250 uM KVEKIGEGTYGVVYK (Cdc2 peptide), 10 mM MgAcetate and [gamma-33P]-ATP (specific activity and concentration as required). The reaction is initiated by the addition of the Mg/ATP mix. After incubation for 40 minutes at room temperature, the reaction is stopped by the addition of phosphoric acid to a concentration of 0.5%, 10 μL of the reaction is then spotted onto a P30 filtermat and washed four times for 4 minutes in 0.425% phosphoric acid and once in methanol prior to drying and scintillation counting. For more details on the kinase assay procedures see: Gao, Y. et. al.; Biochem J., 451 (2): 313-328, 2013.

SMILES: CN(C)Cc1cc(-c2nc(-c3cc4c(cc3F)C(=O)NCC4)c(N)nc2F)ccc1C1CCOCC1 [Example I-60, 6-(3-amino-6-(3-((dimethylamino)methyl)-4-(tetrahydro-2H-pyran-4-yl)phenyl)-5-fluoropyrazin-2-yl)-7-fluoro-3,4-dihydroisoquinolin-1(2H)-one]
- IC50 [1]: 0.1 to 10 nM
- IC50 (Lck (h)): > 1000 nM

SMILES: CC(C)N1CCN(c2ccc(-c3nc(-c4ccc5c(=O)[nH]ccc5c4)c(N)nc3F)cc2)CC1 [Example I-20, 6-(3-amino-5-fluoro-6-(4-(4-isopropylpiperazin-1-yl)phenyl)pyrazin-2-yl)isoquinolin-1(2H)-one]
- IC50 [1]: 0.1 to 10 nM
- IC50 (Lck (h)): > 1000 nM

SMILES: Nc1nc(F)c(-c2ccc(C3CCOCC3)c([C@@H]3CCCN3)c2)nc1-c1ccc2c(c1)CCNC2=O [Example I-18, (S)-6-(3-amino-5-fluoro-6-(3-(pyrrolidin-2-yl)-4-(tetrahydro-2H-pyran-4-yl)phenyl)pyrazin-2-yl)-3,4-dihydroisoquinolin-1(2H)-one]
- IC50 [1]: 0.1 to 10 nM
- IC50 (Lck (h)): > 1000 nM

SMILES: Cc1cc2cc(-c3nc(-c4ccc(N5CCN(C(C)C)CC5)cc4)c(F)nc3N)cc(F)c2c(=O)[nH]1 [Example I-67, 6-(3-amino-5-fluoro-6-(4-(4-isopropylpiperazin-1-yl)phenyl)pyrazin-2-yl)-8-fluoro-3-methylisoquinolin-1(2H)-one]
- IC50 [1]: 0.1 to 10 nM
- IC50 (Lck (h)): > 1000 nM

SMILES: Nc1nc(F)c(-c2ccc(N3CCOCC3)cc2)nc1-c1ccc2c(c1)CCNC2=O [drawing 1319]
- LcK IC50/HPK IC50 selectivity (Lck (h); ratio Lck IC50 / HPK1 IC50): >1666

SMILES: CN(C)Cc1cc(-c2nc(-c3ccc4c(=O)[nH]cc(F)c4c3)c(N)nc2F)ccc1C1CCOCC1 [Example I-42, 6-(3-amino-6-(3-((dimethylamino)methyl)-4-(tetrahydro-2H-pyran-4-yl)phenyl)-5-fluoropyrazin-2-yl)-4-fluoroisoquinolin-1(2H)-one]
- IC50 [1]: 0.1 to 10 nM
- IC50 (Lck (h)): > 1000 nM

SMILES: Cc1c[nH]c(=O)c2ccc(-c3nc(-c4ccc(N5CCN(C(C)C)CC5)cc4)c(F)nc3N)cc12 [Example I-62, 6-(3-amino-5-fluoro-6-(4-(4-isopropylpiperazin-1-yl)phenyl)pyrazin-2-yl)-4-methylisoquinolin-1(2H)-one]
- IC50 [1]: 0.1 to 10 nM
- IC50 (Lck (h)): 101 to 1000 nM

SMILES: CN(C)Cc1cc(-c2nc(-c3cc(F)c4c(=O)[nH]cc(F)c4c3)c(N)nc2F)ccc1C1CCOCC1 [Example I-121, 6-(3-amino-6-(3-((dimethylamino)methyl)-4-(tetrahydro-2H-pyran-4-yl)phenyl)-5-fluoropyrazin-2-yl)-4,8-difluoroisoquinolin-1(2H)-one]
- IC50 [1]: 0.1 to 10 nM
- IC50 (Lck (h)): > 1000 nM

SMILES: Nc1nc(F)c(-c2ccc(N3CCOCC3)c(CN3CCCC3)c2)nc1-c1ccc2c(c1)CCNC2=O [Example I-113, 6-(3-amino-5-fluoro-6-(4-morpholino-3-(pyrrolidin-1-ylmethyl)phenyl)pyrazin-2-yl)-3,4-dihydroisoquinolin-1(2H)-one]
- IC50 [1]: 0.1 to 10 nM
- IC50 (Lck (h)): > 1000 nM

SMILES: CC(C1CC1)N1CCN(c2ccc(-c3nc(-c4cc(F)c5c(c4)CCNC5=O)c(N)nc3F)cc2)CC1 (single isomer, unassigned) [Example I-30, 6-(3-amino-6-(4-(4-(1-cyclopropylethyl)piperazin-1-yl)phenyl)-5-fluoropyrazin-2-yl)-8-fluoro-3,4-dihydroisoquinolin-1(2H)-one]
- IC50 [1]: 0.1 to 10 nM
- IC50 (Lck (h)): 101 to 1000 nM

SMILES: Cc1[nH]c(=O)c2ccc(-c3nc(-c4ccc(N5CCN(C(C)C)CC5)cc4)c(F)nc3N)cc2c1F [Example I-71, 6-(3-amino-5-fluoro-6-(4-(4-isopropylpiperazin-1-yl)phenyl)pyrazin-2-yl)-4-fluoro-3-methylisoquinolin-1(2H)-one]
- IC50 [1]: 0.1 to 10 nM
- IC50 (Lck (h)): > 1000 nM

SMILES: CN(C)Cc1cc(-c2nc(-c3ccc4c(c3)CCNC4=O)c(N)nc2F)ccc1C1CCOCC1 [Example I-59, 6-(3-amino-6-(3-((dimethylamino)methyl)-4-(tetrahydro-2H-pyran-4-yl)phenyl)-5-fluoropyrazin-2-yl)-3,4-dihydroisoquinolin-1(2H)-one]
- IC50 [1]: 0.1 to 10 nM
- IC50 (Lck (h)): > 1000 nM

SMILES: CN(C)Cc1cc(-c2nc(-c3cc4c(F)c[nH]c(=O)c4cc3F)c(N)nc2F)ccc1N1CCOCC1 [Example I-142, 6-(3-amino-6-(3-((dimethylamino)methyl)-4-morpholinophenyl)-5-fluoropyrazin-2-yl)-4,7-difluoroisoquinolin-1(2H)-one]
- IC50 [1]: 0.1 to 10 nM
- IC50 (Lck (h)): > 1000 nM

SMILES: COc1ccc(-c2nc(-c3ccc4c(=O)[nH]cc(F)c4c3)c(N)nc2F)cc1CN(C)C [Example I-267, 6-(3-amino-6-(3-((dimethylamino)methyl)-4-methoxyphenyl)-5-fluoropyrazin-2-yl)-4-fluoroisoquinolin-1(2H)-one]
- IC50 [1]: 0.1 to 10 nM
- IC50 (Lck (h)): > 1000 nM

SMILES: CC(C)N1CCN(c2ccc(-c3nc(-c4cc(F)c5c(=O)[nH]ccc5c4)c(N)nc3F)cc2)CC1 [Example I-21, 6-(3-amino-5-fluoro-6-(4-(4-isopropylpiperazin-1-yl)phenyl)pyrazin-2-yl)-8-fluoroisoquinolin-1(2H)-one]
- IC50 [1]: 0.1 to 10 nM
- IC50 (Lck (h)): 101 to 1000 nM

SMILES: CC(C)N1CCN(c2ccc(-c3nc(-c4ccc5c(=O)[nH]cnc5c4)c(N)nc3F)cc2)CC1 [Example I-37, 7-(3-amino-5-fluoro-6-(4-(4-isopropylpiperazin-1-yl)phenyl)pyrazin-2-yl)quinazolin-4(3H)-one]
- IC50 [1]: 0.1 to 10 nM
- IC50 (Lck (h)): > 1000 nM

SMILES: Nc1nc(F)c(-c2ccc(N3CCN(CCC4CC4)CC3)cc2)nc1-c1cc(F)c2c(c1)CCNC2=O [Example I-26, 6-(3-amino-6-(4-(4-(2-cyclopropylethyl)piperazin-1-yl)phenyl)-5-fluoropyrazin-2-yl)-8-fluoro-3,4-dihydroisoquinolin-1(2H)-one]
- IC50 [1]: 0.1 to 10 nM
- IC50 (Lck (h)): > 1000 nM

SMILES: CN(C)Cc1cc(-c2nc(-c3ccc4c(c3)CCNC4=O)c(N)nc2F)ccc1N1CCOCC1 [Example I-64, 6-(3-amino-6-(3-((dimethylamino)methyl)-4-morpholinophenyl)-5-fluoropyrazin-2-yl)-3,4-dihydroisoquinolin-1(2H)-one]
- IC50 [1]: 0.1 to 10 nM
- IC50 (Lck (h)): > 1000 nM

SMILES: CC(C)N1CCN(c2ccc(-c3nc(-c4cc(F)c5c(c4)CCNC5=O)c(N)nc3F)cc2)CC1 [Example I-14, 6-(3-amino-5-fluoro-6-(4-(4-isopropylpiperazin-1-yl)phenyl)pyrazin-2-yl)-8-fluoro-3,4-dihydroisoquinolin-1(2H)-one]
- IC50 [1]: 0.1 to 10 nM
- IC50 (Lck (h)): 101 to 1000 nM

SMILES: CNCC1Cc2cc(-c3nc(-c4ccc(N5CCN(C(C)C)CC5)cc4)c(F)nc3N)ccc2C(=O)N1 (stereo not shown) [Example I-11, 6-(3-amino-5-fluoro-6-(4-(4-isopropylpiperazin-1-yl)phenyl)pyrazin-2-yl)-3-((methylamino)methyl)-3,4-dihydroisoquinolin-1(2H)-one]
- IC50 [1]: 0.1 to 10 nM
- IC50 (Lck (h)): > 1000 nM

SMILES: Nc1nc(F)c(-c2ccc(N3CCOCC3)cc2)nc1-c1ccc2c(c1)CCNC2=O [Example I-17, 6-(3-amino-5-fluoro-6-(4-morpholinophenyl)pyrazin-2-yl)-3,4-dihydroisoquinolin-1(2H)-one]
- IC50 [1]: 0.1 to 10 nM
- IC50 (Lck (h)): > 1000 nM

SMILES: CCN(C)Cc1cc(-c2nc(-c3cc4c(cc3F)C(=O)NCC4)c(N)nc2F)ccc1C1CCOCC1 [Example I-164, 6-(3-amino-6-(3-((ethyl(methyl)amino)methyl)-4-(tetrahydro-2H-pyran-4-yl)phenyl)-5-fluoropyrazin-2-yl)-7-fluoro-3,4-dihydroisoquinolin-1(2H)-one]
- IC50 [1]: 0.1 to 10 nM
- IC50 (Lck (h)): > 1000 nM

SMILES: Nc1nc(F)c(-c2ccc(N3CCOCC3)c(CN3CCC3)c2)nc1-c1cc(F)c2c(c1)CCNC2=O [Example I-146, 6-(3-amino-6-(3-(azetidin-1-ylmethyl)-4-morpholinophenyl)-5-fluoropyrazin-2-yl)-8-fluoro-3,4-dihydroisoquinolin-1(2H)-one]
- IC50 [1]: 0.1 to 10 nM
- IC50 (Lck (h)): > 1000 nM

SMILES: Nc1nc(F)c(-c2ccc(N3CCN(C4COC4)CC3)cc2)nc1-c1cc(F)c2c(c1)CCNC2=O [Example I-44, 6-(3-amino-5-fluoro-6-(4-(4-(oxetan-3-yl)piperazin-1-yl)phenyl)pyrazin-2-yl)-8-fluoro-3,4-dihydroisoquinolin-1(2H)-one]
- IC50 [1]: 0.1 to 10 nM
- IC50 (Lck (h)): > 1000 nM

SMILES: CCN1CCN(c2ccc(-c3nc(-c4ccc5c(=O)[nH]ccc5c4)c(N)nc3F)cc2)CC1 [Example I-32, 6-(3-amino-6-(4-(4-ethylpiperazin-1-yl)phenyl)-5-fluoropyrazin-2-yl)isoquinolin-1(2H)-one]
- IC50 [1]: 0.1 to 10 nM
- IC50 (Lck (h)): > 1000 nM
